1 compound from PubChem BioAssay (NCI) can be followed below.

Among the test systems are CCRF-CEM leukemia; NCI-H460 lung; NCI/ADR-RES ovarian; SW-620 colon; SN12C renal; HT29 colon; COLO 205 colon; OVCAR-5 ovarian; SNB-75 CNS; NCI-H226 lung.
Common to all, as to assay: inhibition of tumour cell growth, NCI panel, 48 h

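Dose response: 5 concentrations. Exposure: 48 h. Format: 96-well plates. Endpoint: linear interpolation; highest concentration if not reached. At the GI50, growth is halved. TGI: total growth inhibition.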 Bounds are passed on as bounds.

Turning to `CN(CCOc1ccc(NS(C)(=O)=O)cc1)CCc1ccc(NS(C)(=O)=O)cc1`, the GI50 in the assay on CCRF-CEM leukemia, with NCI-H460 lung, in the assay with NCI/ADR-RES ovarian, in the assay on SW-620 colon, in the assay with SN12C renal and with HT29 colon was more than 100 µM throughout. Besides, the GI50 with COLO 205 colon, in the assay with OVCAR-5 ovarian, in the assay with SNB-75 CNS and in the assay on NCI-H226 lung was more than 100 µM each time. The TGI in the assay with CCRF-CEM leukemia, with NCI-H460 lung, in the assay with NCI/ADR-RES ovarian, in the assay with SW-620 colon, in the assay on SN12C renal and in the assay on HT29 colon was more than 100 µM each time. The TGI in the assay on COLO 205 colon, with OVCAR-5 ovarian, with SNB-75 CNS and with NCI-H226 lung was more than 100 µM throughout.
